Each compound was assayed on S. mansoni schistosomulae (assay: Motility assay on schistosomulae (pixel displacement, relative to DMSO control)). Details: schistosomulae, secondary screen, 24h exposure, read at D1, 1 µM.
Assay type: cell-based, Schistosoma mansoni
Procedure: Puerto Rican strain Biomphalaria glabrata snails infected with S. mansoni were kindly provided by Dr. Fred Lewis (Biomedical Research Institute and BEI Resources, MD, USA). Schistosomulae were obtained by exposing six to eight weeks-old snails to continuous light for 2 h at 32 °C. The resulting suspension of cercaria was then mechanically transformed as described ([Lewis, 2001]) and cultured in Opti-MEM/antibiotics (Thermo Fisher Scientific, Waltham, MA) containing 100 μg/mL streptomycin and 100 units/ml penicillin supplemented with 5% fetal bovine serum (FBS; Thermo Fisher). Parasite cultures were incubated at 37 °C with 5% CO2 for at least 10 days with no apparent loss of viability. At this point, animals with internal dark granulations and with no observable body contraction/relaxation cycles were considered dead.
(§1) Schistosomulae (200/well) and adult parasites (unpaired worms) were maintained in 300 μL OPTI-MEM with 5% dialyzed FBS (without antibiotics) and exposed to compounds at 1 and 10 μM for 24 h. A kinetic assay consisting of 1, 3, 6 and 12 h incubation times was performed on selected hits by motility monitoring using a stereo microscope (SMZ1270, Nikon) for adults and an inverted microscope for schistosomulae (eclipse TE2000-U, Nikon) connected to a monochrome camera (DS-Qi2, Nikon) for image acquisition. Images were recorded at a rate of 10 frames/s for a period of 1 min and videos were analyzed using ImageJ software (version 1.41, NIH, USA). Parasite movement quantification and data analysis protocols were applied using the pixel displacement method ([Patocka et al., 2014]; [Rashid et al., 2015]) and compared to control parasites treated with DMSO. Parasites were then washed several times in Opti-MEM, 5% FBS and incubated up to an additional three days (schistosomulae) or five days (adult worms) at 37 °C, 5% CO2 and motility was recorded as described above.

Fractional motility | Compound
0.41 | O=C(NC(NC(=S)Nc1ccc(F)c([N+](=O)[O-])c1)C(Cl)(Cl)Cl)C(c1ccccc1)c1ccccc1 (stereo not shown) [CGK 733]
2.11 | C#CC[C@H](c1nc2cc(Cl)ccc2c(=O)n1Nc1ccccc1)N(CCCN)C(=O)c1cccc(Cl)c1F [ARQ 621]
1.64 | O=C(/C=C/c1ccc2ccccc2n1)c1ccncc1 [PFK15]

Compound | Fractional motility
N#CSc1cc(SC#N)c(N)nc1N [PR-619] | 2.00

Same assay, conditions: schistosomulae, secondary screen, 24h exposure, read at D1, 10 µM

Fractional motility | Compound
-0.71 | O=C(NC(NC(=S)Nc1ccc(F)c([N+](=O)[O-])c1)C(Cl)(Cl)Cl)C(c1ccccc1)c1ccccc1 (stereo not shown) [CGK 733]
2.52 | C#CC[C@H](c1nc2cc(Cl)ccc2c(=O)n1Nc1ccccc1)N(CCCN)C(=O)c1cccc(Cl)c1F [ARQ 621]
3.41 | O=C(/C=C/c1ccc2ccccc2n1)c1ccncc1 [PFK15]

Compound | Fractional motility
N#CSc1cc(SC#N)c(N)nc1N [PR-619] | 0.27

Same assay, conditions: schistosomulae, secondary screen, 24h exposure, read at D5, 1 µM

Fractional motility | Compound
-0.07 | O=C(NC(NC(=S)Nc1ccc(F)c([N+](=O)[O-])c1)C(Cl)(Cl)Cl)C(c1ccccc1)c1ccccc1 (stereo not shown) [CGK 733]
-0.50 | O=C(/C=C/c1ccc2ccccc2n1)c1ccncc1 [PFK15]

Compound | Fractional motility
N#CSc1cc(SC#N)c(N)nc1N [PR-619] | 0.18

Same assay, conditions: schistosomulae, secondary screen, 24h exposure, read at D5, 10 µM

Fractional motility | Compound
-0.90 | O=C(NC(NC(=S)Nc1ccc(F)c([N+](=O)[O-])c1)C(Cl)(Cl)Cl)C(c1ccccc1)c1ccccc1 (stereo not shown) [CGK 733]
-0.80 | O=C(/C=C/c1ccc2ccccc2n1)c1ccncc1 [PFK15]

Compound | Fractional motility
N#CSc1cc(SC#N)c(N)nc1N [PR-619] | -0.76

What follows are compounds tested on S. mansoni schistosomulae (assay: Phenotypic primary screen assay on schistosomulae (phenotype; viability by methylene blue dye exclusion)). Details: three-day-old schistosomulae, 10 μM, 24 h; calculated 5 days post compound exposure.
Assay type: cell-based, Schistosoma mansoni
Procedure: Puerto Rican strain Biomphalaria glabrata snails infected with S. mansoni were kindly provided by Dr. Fred Lewis (Biomedical Research Institute and BEI Resources, MD, USA). Schistosomulae were obtained by exposing six to eight weeks-old snails to continuous light for 2 h at 32 °C. […] At this point, animals with internal dark granulations and with no observable body contraction/relaxation cycles were considered dead.
Schistosomulae were monitored under a stereo microscope (SMZ1270, Nikon). Phenotypic observations were made by analyzing schistosomulae, 24 h after drug addition to assess any immediate effect and five days post-compound exposure to observe long-term impacts on both the movement and overall body shape in comparison to control animals exposed to DMSO only.

Compound | Viability (%)
O=C(NC(NC(=S)Nc1ccc(F)c([N+](=O)[O-])c1)C(Cl)(Cl)Cl)C(c1ccccc1)c1ccccc1 (stereo not shown) [CGK 733] | 62,5%
C#CC[C@H](c1nc2cc(Cl)ccc2c(=O)n1Nc1ccccc1)N(CCCN)C(=O)c1cccc(Cl)c1F [ARQ 621] | 13%
O=C(/C=C/c1ccc2ccccc2n1)c1ccncc1 [PFK15] | 63%
N#CSc1cc(SC#N)c(N)nc1N [PR-619] | 54,5%

Same assay, conditions: three-day-old schistosomulae, 10 μM, 24 h; estimated 5 days post compound exposure

Compound | Phenotype
O=C(NC(NC(=S)Nc1ccc(F)c([N+](=O)[O-])c1)C(Cl)(Cl)Cl)C(c1ccccc1)c1ccccc1 (stereo not shown) [CGK 733] | dark, granulated, some big
C#CC[C@H](c1nc2cc(Cl)ccc2c(=O)n1Nc1ccccc1)N(CCCN)C(=O)c1cccc(Cl)c1F [ARQ 621] | dark, granulated
O=C(/C=C/c1ccc2ccccc2n1)c1ccncc1 [PFK15] | dark, granulated
N#CSc1cc(SC#N)c(N)nc1N [PR-619] | dark, granulated

Each compound was assayed on S. mansoni adult worms (assay: Motility assay on adult parasites (pixel displacement, relative to DMSO control)). Details: adult male and female parasites, 10 μM, long-term.
Assay type: cell-based, Schistosoma mansoni
Procedure: Adult parasites were collected from 40 day-old female CD1 mice (Charles River) previously inoculated by the tail infection method ([Lewis, 2001]). Six weeks post-infection, mice were sacrificed, and adult worms extracted after perfusion of in the hepatic portal vein and mesenteric venules ([Lewis, 2001]). Animal procedures were reviewed and approved by the Facility Animal Care Committee of McGill University (Protocol No. 3346) and were conducted in accordance with the guidelines of the Canadian Council on Animal Care.
as §1

Compound | hypomotility
N#CSc1cc(SC#N)c(N)nc1N [PR-619] | 94.5%

Same assay, conditions: adults, 10 μM, long-term after washout

Compound | motility phenotype in words
N#CSc1cc(SC#N)c(N)nc1N [PR-619] | severely paralyzed adults

Same assay, conditions: secondary screen, 10 μM, D1, Female adult worms

Fractional motility | Compound
-0.10 | O=C(NC(NC(=S)Nc1ccc(F)c([N+](=O)[O-])c1)C(Cl)(Cl)Cl)C(c1ccccc1)c1ccccc1 (stereo not shown) [CGK 733]
-0.48 | C#CC[C@H](c1nc2cc(Cl)ccc2c(=O)n1Nc1ccccc1)N(CCCN)C(=O)c1cccc(Cl)c1F [ARQ 621]
-0.30 | O=C(/C=C/c1ccc2ccccc2n1)c1ccncc1 [PFK15]

Compound | Fractional motility
N#CSc1cc(SC#N)c(N)nc1N [PR-619] | 0.35

Same assay, conditions: secondary screen, 10 μM, D1, Male adult worms

Fractional motility | Compound
0.12 | O=C(NC(NC(=S)Nc1ccc(F)c([N+](=O)[O-])c1)C(Cl)(Cl)Cl)C(c1ccccc1)c1ccccc1 (stereo not shown) [CGK 733]
0.41 | C#CC[C@H](c1nc2cc(Cl)ccc2c(=O)n1Nc1ccccc1)N(CCCN)C(=O)c1cccc(Cl)c1F [ARQ 621]
4.15 | O=C(/C=C/c1ccc2ccccc2n1)c1ccncc1 [PFK15]

Compound | Fractional motility
N#CSc1cc(SC#N)c(N)nc1N [PR-619] | 0.35

Same assay, conditions: secondary screen, 10 μM, D5, Female adult worms

Fractional motility | Compound
-0.83 | O=C(NC(NC(=S)Nc1ccc(F)c([N+](=O)[O-])c1)C(Cl)(Cl)Cl)C(c1ccccc1)c1ccccc1 (stereo not shown) [CGK 733]
-0.43 | C#CC[C@H](c1nc2cc(Cl)ccc2c(=O)n1Nc1ccccc1)N(CCCN)C(=O)c1cccc(Cl)c1F [ARQ 621]
-0.50 | O=C(/C=C/c1ccc2ccccc2n1)c1ccncc1 [PFK15]

Compound | Fractional motility
N#CSc1cc(SC#N)c(N)nc1N [PR-619] | -0.88

Same assay, conditions: secondary screen, 10 μM, D5, Male adult worms

Fractional motility | Compound
-0.19 | O=C(NC(NC(=S)Nc1ccc(F)c([N+](=O)[O-])c1)C(Cl)(Cl)Cl)C(c1ccccc1)c1ccccc1 (stereo not shown) [CGK 733]
0.0454 | C#CC[C@H](c1nc2cc(Cl)ccc2c(=O)n1Nc1ccccc1)N(CCCN)C(=O)c1cccc(Cl)c1F [ARQ 621]
0.98 | O=C(/C=C/c1ccc2ccccc2n1)c1ccncc1 [PFK15]

Compound | Fractional motility
N#CSc1cc(SC#N)c(N)nc1N [PR-619] | -0.93

Source: publication PMC7284125, “Identification of annotated bioactive molecules that impair motility of the blood fluke Schistosoma mansoni” (International Journal for Parasitology: Drugs and Drug …, 2020)
